Values quoted from earlier work in patent US20120022114A1, “Low-dose, non-irritating nicotine nasal composition to reduce the desire to smoke” (Laboratorio Pablo Cassara S.R.L., priority 2009, published 2012).

Settings: when inhaled; on average

In the case of CN1CCCC1c1cccnc1 (stereo not shown) [nicotine, Nicotine], the “Time for the substance to reach the brain” value is listed as “about seven”.
